Assay results reported in ChEMBL document CHEMBL3885861, “Open TG-GATES”.

Organism: Rattus norvegicus
Assay: Open TG-GATES - Regimen: Daily Repeat
Assay type: toxicity, organism-based, Sprague-Dawley
Design: regimen Daily Repeat, gender Male, age 6 weeks
Details: in vivo, po, 300 mg/kg, route gavage, dose level Middle; for APTT / Bas / Eos / Fbg / Hb / Ht / Lym / MCH / MCHC / MCV / Mono / Neu / PT / Plat / RBC / Ret / WBC: tissue Blood; for KIDNEY_L / KIDNEY_R / KIDNEY_TOTAL: tissue Kidney; for LIVER: tissue Liver; for A/G / ALP / ALT / AST / BUN / CRE / Ca / Cl / DBIL / GLC / IP / K / LDH / Na / PL / RALB / TBIL / TC / TG / TP / gamma-GTP: tissue Plasma

Structure (SMILES): CC(=O)[C@@]1(O)CC[C@H]2[C@@H]3C=C(Cl)C4=CC(=O)CC[C@]4(C)[C@H]3CC[C@@]21C [CHLORMADINONE]
- TERMINAL_BW (72 h, time 3 day): 228.1 g
- APTT (72 h, time 3 day): 27.6 s
- Bas (72 h, time 3 day): 0%
- Eos (72 h, time 3 day): 1%
- Fbg (72 h, time 3 day): 334.4 mg/dL
- Hb (72 h, time 3 day): 14.1 g/dL
- Ht (72 h, time 3 day): 42.3%
- Lym (72 h, time 3 day): 76.8%
- MCH (72 h, time 3 day): 20.6 pg
- MCHC (72 h, time 3 day): 33.2%
- MCV (72 h, time 3 day): 62 fL
- Mono (72 h, time 3 day): 3.4%
- Neu (72 h, time 3 day): 18.4%
- PT (72 h, time 3 day): 14.8 s
- Plat (72 h, time 3 day): 130.2 x10_4/uL
- RBC (72 h, time 3 day): 684 x10_4/ul
- Ret (72 h, time 3 day): 5.9%
- WBC (72 h, time 3 day): 96.1 x10_2/uL
- KIDNEY_L (72 h, time 3 day): 1 g
- KIDNEY_R (72 h, time 3 day): 1 g
- KIDNEY_TOTAL (72 h, time 3 day): 1.9 g
- LIVER (72 h, time 3 day): 11 g
- A/G (72 h, time 3 day): 1.2
- ALP (72 h, time 3 day): 1623.2 IU/L
- ALT (72 h, time 3 day): 51 IU/L
- AST (72 h, time 3 day): 76.4 IU/L
- BUN (72 h, time 3 day): 17.2 mg/dL
- CRE (72 h, time 3 day): 0.2 mg/dL
- Ca (72 h, time 3 day): 11 mg/dL
- Cl (72 h, time 3 day): 106 meq/L
- DBIL (72 h, time 3 day): 0 mg/dL
- GLC (72 h, time 3 day): 194.2 mg/dL
- IP (72 h, time 3 day): 7.5 mg/dL
- K (72 h, time 3 day): 4.6 meq/L
- LDH (72 h, time 3 day): 243.2 IU/L
- Na (72 h, time 3 day): 141.4 meq/L
- PL (72 h, time 3 day): 172.4 mg/dL
- RALB (72 h, time 3 day): 3.2 g/dL
- TBIL (72 h, time 3 day): 0.008 mg/dL
- TC (72 h, time 3 day): 77 mg/dL
- TG (72 h, time 3 day): 181.4 mg/dL
- TP (72 h, time 3 day): 5.8 g/dL
- gamma-GTP (72 h, time 3 day): 1.4 IU/L
- TERMINAL_BW ([…], time 7 day): 257.8 g
- TERMINAL_BW ([…], time 14 day): 297.5 g
- TERMINAL_BW ([…], time 28 day): 346.1 g
- APTT ([…], time 7 day): 29.5 s
- Bas ([…], time 7 day): 0%
- Eos ([…], time 7 day): 0.6%
- Fbg ([…], time 7 day): 335.8 mg/dL
- Hb ([…], time 7 day): 14.7 g/dL
- Ht ([…], time 7 day): 42.9%
- Lym ([…], time 7 day): 86%
- MCH ([…], time 7 day): 20.8 pg
- MCHC ([…], time 7 day): 34.2%
- MCV ([…], time 7 day): 60.9 fL
- Mono ([…], time 7 day): 2.4%
- Neu ([…], time 7 day): 10.2%
- PT ([…], time 7 day): 14.8 s
- Plat ([…], time 7 day): 129.9 x10_4/uL
- RBC ([…], time 7 day): 704.2 x10_4/ul
- Ret ([…], time 7 day): 4.3%
- WBC ([…], time 7 day): 119.7 x10_2/uL
- APTT ([…], time 14 day): 28.4 s
- Bas ([…], time 14 day): 0%
- Eos ([…], time 14 day): 1%
- Fbg ([…], time 14 day): 326.6 mg/dL
- Hb ([…], time 14 day): 15.2 g/dL
- Ht ([…], time 14 day): 44.7%
- Lym ([…], time 14 day): 78%
- MCH ([…], time 14 day): 19.3 pg
- MCHC ([…], time 14 day): 34%
- MCV ([…], time 14 day): 56.8 fL
- Mono ([…], time 14 day): 2.6%
- Neu ([…], time 14 day): 17.6%
- PT ([…], time 14 day): 14.8 s
- Plat ([…], time 14 day): 105.8 x10_4/uL
- RBC ([…], time 14 day): 787.4 x10_4/ul
- Ret ([…], time 14 day): 3.1%
- WBC ([…], time 14 day): 84.6 x10_2/uL
- APTT ([…], time 28 day): 28 s
- Bas ([…], time 28 day): 0%
- Eos ([…], time 28 day): 1%
- Fbg ([…], time 28 day): 313.2 mg/dL
- Hb ([…], time 28 day): 16.2 g/dL
- Ht ([…], time 28 day): 46.4%
- Lym ([…], time 28 day): 82.8%
- MCH ([…], time 28 day): 18.9 pg
- MCHC ([…], time 28 day): 34.9%
- MCV ([…], time 28 day): 54 fL
- Mono ([…], time 28 day): 2.2%
- Neu ([…], time 28 day): 12.8%
- PT ([…], time 28 day): 14.8 s
- Plat ([…], time 28 day): 92.9 x10_4/uL
- RBC ([…], time 28 day): 860 x10_4/ul
- Ret ([…], time 28 day): 2%
- WBC ([…], time 28 day): 105.1 x10_2/uL
- KIDNEY_L ([…], time 7 day): 1 g
- KIDNEY_R ([…], time 7 day): 1 g
- KIDNEY_TOTAL ([…], time 7 day): 2.1 g
- KIDNEY_L ([…], time 14 day): 1.1 g
- KIDNEY_R ([…], time 14 day): 1.1 g
- KIDNEY_TOTAL ([…], time 14 day): 2.2 g
- KIDNEY_L ([…], time 28 day): 1.2 g
- KIDNEY_R ([…], time 28 day): 1.2 g
- KIDNEY_TOTAL ([…], time 28 day): 2.4 g
- LIVER ([…], time 7 day): 12.6 g
- LIVER ([…], time 14 day): 13.1 g
- LIVER ([…], time 28 day): 13.4 g
- A/G ([…], time 7 day): 1.1
- ALP ([…], time 7 day): 1379.4 IU/L
- ALT ([…], time 7 day): 53 IU/L
- AST ([…], time 7 day): 70.8 IU/L
- BUN ([…], time 7 day): 19.4 mg/dL
- CRE ([…], time 7 day): 0.2 mg/dL
- Ca ([…], time 7 day): 10.9 mg/dL
- Cl ([…], time 7 day): 105.2 meq/L
- DBIL ([…], time 7 day): 0 mg/dL
- GLC ([…], time 7 day): 194.6 mg/dL
- IP ([…], time 7 day): 7.4 mg/dL
- K ([…], time 7 day): 4.6 meq/L
- LDH ([…], time 7 day): 198.8 IU/L
- Na ([…], time 7 day): 139.4 meq/L
- PL ([…], time 7 day): 182.2 mg/dL
- RALB ([…], time 7 day): 3.2 g/dL
- TBIL ([…], time 7 day): 0 mg/dL
- TC ([…], time 7 day): 91.2 mg/dL
- TG ([…], time 7 day): 205.8 mg/dL
- TP ([…], time 7 day): 6 g/dL
- gamma-GTP ([…], time 7 day): 1.8 IU/L
- A/G ([…], time 14 day): 1.1
- ALP ([…], time 14 day): 1447.6 IU/L
- ALT ([…], time 14 day): 44.2 IU/L
- AST ([…], time 14 day): 67 IU/L
- BUN ([…], time 14 day): 20 mg/dL
- CRE ([…], time 14 day): 0.2 mg/dL
- Ca ([…], time 14 day): 10.5 mg/dL
- Cl ([…], time 14 day): 106.8 meq/L
- DBIL ([…], time 14 day): 0 mg/dL
- GLC ([…], time 14 day): 196.2 mg/dL
- IP ([…], time 14 day): 6.9 mg/dL
- K ([…], time 14 day): 4.5 meq/L
- LDH ([…], time 14 day): 161.4 IU/L
- Na ([…], time 14 day): 141.4 meq/L
- PL ([…], time 14 day): 171.6 mg/dL
- RALB ([…], time 14 day): 3.1 g/dL
- TBIL ([…], time 14 day): 0.002 mg/dL
- TC ([…], time 14 day): 83.8 mg/dL
- TG ([…], time 14 day): 173 mg/dL
- TP ([…], time 14 day): 6 g/dL
- gamma-GTP ([…], time 14 day): 1.8 IU/L
- A/G ([…], time 28 day): 1.1
- ALP ([…], time 28 day): 1248.8 IU/L
- ALT ([…], time 28 day): 61.6 IU/L
- AST ([…], time 28 day): 76.6 IU/L
- BUN ([…], time 28 day): 19.4 mg/dL
- CRE ([…], time 28 day): 0.2 mg/dL
- Ca ([…], time 28 day): 10.6 mg/dL
- Cl ([…], time 28 day): 105.6 meq/L
- DBIL ([…], time 28 day): 0 mg/dL
- GLC ([…], time 28 day): 186.8 mg/dL
- IP ([…], time 28 day): 6 mg/dL
- K ([…], time 28 day): 4 meq/L
- LDH ([…], time 28 day): 156.2 IU/L
- Na ([…], time 28 day): 141.2 meq/L
- PL ([…], time 28 day): 171 mg/dL
- RALB ([…], time 28 day): 3.3 g/dL
- TBIL ([…], time 28 day): 0.012 mg/dL
- TC ([…], time 28 day): 89.2 mg/dL
- TG ([…], time 28 day): 153.6 mg/dL
- TP ([…], time 28 day): 6.3 g/dL
- gamma-GTP ([…], time 28 day): 2.4 IU/L
